Reference: US11426441B2, “Composition comprising protein phosphatase 1 inhibitory peptide for treating vascular diseases” (BethphaGen Inc., priority 2016, dated 2022)
No end group written: not given here.

Tests used:
SERCA2a = assay: Calcium uptake assay (SERCA2a activity) in PASMCs; type: biochemical; settings: synthetic phenotype, 3 μM
Method: Pulmonary arterial smooth muscle cells (PASMCs) were homogenized in a solution of pH 7.0 containing 40 mM imidazole, 10 mM NaF, 1 mM EDTA, 300 mM sucrose, and 0.5 mM DTT, and 250 μg of the lysate was added to an uptake buffer of pH 7.0 containing 100 mM KCl, 5 mM MgCl2, 5 mM NaN3, […], and 40 mM imidazole, and calcium uptake assay was performed with a calcium concentration of pCa 6, containing radioactive isotopes. The cells were treated with 1 μM ruthenium red (Sigma Aldrich), followed by waiting at 37° C. for 3 min, and then treated with 5 mM K-oxalate and Mg-ATP (Sigma Aldrich). In addition, 500 μl of the reaction material was filtered out through a 0.45 μm filter (Millipore) from the start of a reaction to 4 minutes at intervals of 1 minute, and cpm (count per minute) was measured using a scintillation counter (Beckman).

RASMCs = assay: In vitro cell scratch assay (RASMC migration); type: cell-based, rat; settings: 3 μM peptide
Method: RASMCs isolated from the thoracic aorta were cultured in DMEM supplemented with 0.1% (v/v) FBS (Contractile) or in DMEM supplemented with 10% (v/v) FBS (Synthetic) in the presence of 3 μM of control peptide (Con; SEQ ID NO: 23) or ψPLB-SE peptide (SEQ ID NO: 2). Alternatively, RASMC cultured in DMEM supplemented with 0.1% (v/v) FBS were treated with 10 ng/ml of PDGF-BB (R&D Systems) (Synthetic) in the presence of 3 μM control or ψPLB-SE peptide. A region of the RASMC layer was removed by scratching the plate with a sterile 200 μL pipette tip. The cells were incubated for 12 hours or 24 hours and then observed under an 1×80 microscope (Olympus). The distance traveled by the cells was measured using MetaMorph software.

[1] = system: monocrotaline (MCT)-induced pulmonary arterial hypertension rats; assay: Monocrotaline-induced pulmonary arterial hypertension in rats; type: in vivo, rat
Method: Vascular smooth muscle cells (VSMCs) were homogenized in a minimal volume of 50 mM Tris-HCl, pH 7.4, supplemented with a broad-spectrum protease inhibitor cocktail (Calbiochem). The proteins were separated by SDS-PAGE and then transferred to polyvinylidene fluoride membranes (Schleicher & Schuell). After blocking with 5% (w/v) non-fat milk for 1 hour and washing with TBST, the membranes were incubated with antibodies against SERCA2a, SERCA2b (21st century biochemical), PCNA (abcam), GAPDH (Sigma-Aldrich), phospho-eNOS, eNOS, phospho-eIF2α, eIF2α (cell signaling), Vimentin, α-SMA, BMPR2 (Santa cruz), phospho-Akt, Akt (cell signaling), phospho-phospholamban (Merck), and Phospholamban (cell signaling). The membranes were then incubated with horseradish peroxidase-conjugated secondary antibodies (Jackson ImmunoResearch, West Grove, Pa., USA) and developed using a chemiluminescent substrate (Dogen). The blots were scanned and quantified using LAS software.
Eleven Sprague-Dawley rats (Damool science, Korea) weighing 250-300 g were administered with 60 mg/kg monocrotaline (MCT) (Sigma Aldrich) via intraperitoneal injection, and three animals of a control group were administered with 0.9% physiological saline. According to the dosing schedule, simultaneously with the administration of MCT, six animals for the […] were administered with ψPLB-SE peptide diluted in 300 μl via respiratory inhalation four times at intervals of one week. Five animals for the control group were administered with control peptide. The rats were sacrificed one week after the administration with last peptide, and then histological analysis and molecular biological experiments were conducted.
In order to indirectly measure the pulmonary artery pressure, right heart catheterization was conducted on the basis of a procedure reported in Nature Protocols in 2008. Rats were anesthetized, followed by tracheal intubation. The rats were placed on a homeothermic plate (AD Instruments, Spechbach, Germany) for the maintenance of body temperature during heart catheterization, and then kept breathing using an artificial respiratory device only for an animal (MiniVent type 845, Hugo Sachs Elektronik, March-Hugstetten, Germany). The chest of the rats was opened, and then high-fidelity 1.4 F micromanometer/Mikro-Tip Pressure catheter (Millar Instruments, Houston, Tex.) was allowed to infiltrate the tricuspid site, to measure the right ventricular end-systolic pressure, right ventricular end-diastolic pressure, left ventricular end-systolic pressure, and left ventricular end-diastolic pressure (RVESP, RVEDP, LVESP, LVEDP). Related values and data were collected and analyzed using the PowerLab data acquisition system (MPVS-Ultra Single Segment Foundation System, AD Instruments) and LabChart 7 for Windows software.
Pulmonary tissues were taken from animal models, fixed with 4% (w/v) paraformaldehyde for 5 days at room temperature, and then washed with PBS. After embedding the specimens in paraffin and sectioning the tissue blocks into a thickness of 7 μm, the sections were stained with haematoxylin and eosin (Sigma Aldrich) to investigate the vascular thickness and inflammation, and the sections were stained with Masson-trichrome (Sigma Aldrich) to investigate the extent of perivascular fibrosis, and then observed through an optical microscope.
The pulmonary tissues were obtained from rats and mice, and the cytokine levels in the tissues were quantitatively analyzed using human proinflammatory 10plex Meso Scale Diagnostics plates (MSD; Rockville, Md.).

For “RAETIEMPQ (not fully specified) [ψPLB-SE, 9-mer PP1 decoy peptide mimicking phosphorylated PLB; conjugated via GGG linker to cell penetrating peptide dNP2 or TAT]”, the “SERCA2a activity (Ca^2+ uptake assay)” value (SERCA2a) was “restored”, the “increased migratory activity of RASMCs” value (RASMCs; synthetic conditions (10% FBS)) was “inhibited” and the “increased migratory activity of RASMCs” value (RASMCs; treatment with PDGF-BB 10 ng/ml) was “inhibited”. The “right ventricular end-systolic pressure” value ([1]; MCT 60 mg/kg rats, peptide via respiratory inhalation once a week for 4 weeks, MCT 67.4±6.4, sham 33.7±1.7) was 33.5±5.8, the “expression degree of BMPR2” value ([1]; rat pulmonary tissue) was “restored” and the “fibrosis extent of vascular adventitia (Masson-trichrome staining)” value ([1]; rat pulmonary tissue) was “reduced”. The “increase in vascular thickening (hematoxylin and eosin staining)” value ([1]; rat pulmonary tissue) was “attenuated”, the “phosphorylation level of eIF2α” value ([1]; rat pulmonary tissue) was “restored” and the “proinflammatory cytokines (GM-CSF, TNF-α, IL-17, IL-1β, IL-6, TGF-β) levels” value ([1]; rat pulmonary tissue) was “restored to nearly to the normal levels”. The “eNOS phosphorylation level (eNOS activity)” value ([1]; rat pulmonary tissue proteins) was “increased” and the “increases in the expression of vimentin and α-SMA” value ([1]; rat pulmonary tissue, protein quantitative analysis) was “attenuated”.
